Data set [1] is described as follows: Surface tension determination in water (Kruss K12 Tensiometer, Wilhelmy plate). Type of data set: physicochemical. The settings on record: for surface tension versus concentration profile, comparison in words: FIG. 1, 2, 3, 5. On the procedure:
Test Procedure I—Surface Tension Determination
(§1) All surface tensions were determined using a Kruss K12 Tensiometer. The tensiometer was integrated with an automatic dosimat and a computer, using a software package for dynamic contact angle (K121). The program was run using a Wilhelmy platinum plate (PL12) and glass sample vessel (GL7). All parts referenced above including instrument and computer are available from Kruss USA, Charlotte, N.C.

A short description of data set [2]: Surface tension measurements in tributyl phosphate. Conditions: 2000 ppm in tributyl phosphate. In kind it is physicochemical. The method, then:
as §1
Surface tension measurements were obtained as described above with the exception that the measurments were obtained in tributyl phosphate.

Data set [3] can be described thus: DC conductivity of potassium salts in tributylphosphate. In kind it is physicochemical. Conditions: 3000 ppm in tributyl phosphate, 21.6-21.9° C. An excerpt:
Four tributylphosphate samples, with or without dissolved anti-erosion additives, measured for DC conductivity. The four samples were neat tributyl phosphate (control), tributyl phosphate with 3000 ppm FC-98, tributyl phosphate with 3000 ppm PBSK, and tributyl phosphate with 3000 ppm potassium bis(perfluorobutanesulfonyl)imide (DBIK).
The conductivity probe was carefully cleaned with EM Science OMNISOLV™ grade methanol, dried in a clean nitrogen stream, and allowed to equilibrate back to ambient temperature between samples.

Data set [4] is described as follows: Bioelimination study, fluorochemical sulfonate in male rat liver tissue. In kind it is in vivo. The settings on record: for factor lower than C8F17SO3− / factor lower than C6F13SO3−: liver amount; for Amount of Sulfonate, Day 1 / Amount of Sulfonate, Day 14 / Amount of Sulfonate, Day 28: male rat liver tissue, dose 30 (C4), 10 (C6), 3 (C8) mg/kg body weight/day; for Amount of Sulfonate, Day 1: Day 1 following completion of feeding; for Amount of Sulfonate, Day 1N / Amount of Sulfonate, Day 14N / Amount of Sulfonate, Day 28N: male rat liver, normalized to a feeding level of 3 mg/kg body weight per day; for elimination from the body, in words: tested in the form of its potassium salt. On the procedure:
Comparative study of potassium perfluorobutanesulfonate (using a dose level of 30 mg/kg body weight/day), potassium perfluorohexanesulfonate (using a dose level of 10 mg/kg body weight/day), and potassium perfluorooctanesulfonate (using a dose level of 3 mg/kg body weight/day).

Data set [5] in a line: Solubility in 10/1 buffered oxide etch solution.
[6] abbreviates: 28 days following completion of feeding.
Where [7] appears, read: 28 days following completion of feeding, after normalization to the same feeding levels.
The mark [8] stands for this setting: immediately following completion of feeding.

Entries after “also recorded” stand apart in the source; their conditions may differ.

In the case of `O=S(=O)([N-]S(=O)(=O)C(F)(F)C(F)(F)C(F)(F)C(F)(F)F)C(F)(F)C(F)(F)C(F)(F)C(F)(F)F.[K+]` [C4F9SO2NKSO2C4F9, potassium bis(perfluorobutanesulfonyl)imide], the entries for the “surface tension (surface energy)” value in data set [1] (10 ppm), in data set [1] (100 ppm) and in data set [1] (1000 ppm) were 61.85 dynes/cm, 41.61 dynes/cm and 34.02 dynes/cm, respectively. In addition, in data set [1], the “surface tension versus concentration profile, comparison in words” value is “surface tensions significantly less than PBSK and comparable to potassium perfluorooctanesulfonate at equal concentrations; also recorded: the same or better surface tension in water as C8F17SO3K”. Further, the “Surface Tension @ 2000 ppm” value in data set [2] is recorded as 27.34 dyne/cm. In data set [3], the “Observed Conductivity” value was found to be 13.8 uS/cm.
For `O=S(=O)([O-])C(F)(F)C(F)(F)C(F)(F)C(F)(F)C(F)(F)C(F)(F)F.[K+]` [C6F13SO3^−, potassium perfluorohexanesulfonate], the “factor lower than C8F17SO3−” value in data set [4] (setting [6]) turned out to be 6.5. The “factor lower than C8F17SO3−” value in data set [4] (setting [7]) is recorded as 21.5. In data set [4] (setting [8]), the “factor lower than C8F17SO3−” value was 1.3. In data set [4], the “Amount of Sulfonate, Day 1” value came to 327 ± 52 ppm; the “Amount of Sulfonate, Day 14” value worked out at 61.9 ± 11.7 ppm; the “Amount of Sulfonate, Day 28” value came out at 36.3 ± 7.4 ppm; the “Amount of Sulfonate, Day 1N” value was found to be 98 ppm. In addition, in data set [4], the “Amount of Sulfonate, Day 14N” value was 19 ppm and the “Amount of Sulfonate, Day 28N” value turned out to be 11 ppm.
For `O=S(=O)([O-])C(F)(F)C(F)(F)C(F)(F)C(F)(F)C(F)(F)C(F)(F)C(F)(F)C(F)(F)F.O=S(=O)([O-])C(F)(F)C(F)(F)C(F)(F)C(F)(F)C(F)(F)C(F)(F)C(F)(F)C(F)(F)F.[Ca+2]` [Ca(C8F17SO3)2], the “Surface Tension @ 2000 ppm” value in data set [2] was 26.15 dyne/cm.
As for `O=S(=O)([N-]S(=O)(=O)C(F)(F)C(F)(F)C(F)(F)C(F)(F)F)C(F)(F)C(F)(F)C(F)(F)C(F)(F)F.[Li+]` [DBI-Li, Lithium bis(perfluorobutanesulfonyl)imide], the surface tension in data set [1] (200 ppm) is listed as 53.2 dyne/cm; in data set [1] (450 ppm), 48.1 dyne/cm; in data set [1] (960 ppm), 42.8 dyne/cm; in data set [1] (1300 ppm), 41.5 dyne/cm; in data set [1] (1700 ppm), 39.1 dyne/cm; in data set [1] (2600 ppm), 36.0 dyne/cm. Also, the “surface tension versus concentration profile, comparison in words” value in data set [1] is “significantly lower surface tensions than the shorter chain homologues”.
On to `N.O=S(=O)(NS(=O)(=O)C(F)(F)C(F)(F)C(F)(F)C(F)(F)F)C(F)(F)C(F)(F)C(F)(F)C(F)(F)F` [DBI-NH4, NH4^+−N(SO2C4F9)2], for which the surface tension in data set [1] (200 ppm) turned out to be 48.6 dyne/cm; in data set [1] (450 ppm), 44.1 dyne/cm; in data set [1] (960 ppm) it was 40.1 dyne/cm; in data set [1] (1300 ppm) it was 38.7 dyne/cm; in data set [1] (1700 ppm), 35.9 dyne/cm; in data set [1] (2600 ppm) it was 31.5 dyne/cm. Also, the “surface tension versus concentration profile, comparison in words” value in data set [1] was “better surfactants than NH4^+−OSO2C8F17”.
Take `O=S(=O)([O-])C(F)(F)C(F)(F)C(F)(F)C(F)(F)F.[K+]` [Example C4F9SO3K, Potassium perfluorobutanesulfonate]: the results for the “surface tension (surface energy)” value in data set [1] (10 ppm), in data set [1] (100 ppm) and in data set [1] (1000 ppm) were 70 dynes/cm, 67.5 dynes/cm and 53 dynes/cm, respectively. The “surface tension versus concentration profile, comparison in words” value in data set [1] is reported as “less effective than perfluorooctanesulfonate in lowering the surface tension of water”. For the same molecule, the “Surface Tension @ 2000 ppm” value in data set [2] worked out at 27.32 dyne/cm. Besides, the “Observed Conductivity” value in data set [3] was determined as 3.5 uS/cm. Further, the “factor lower than C6F13SO3−” value in data set [4] (setting [6]) was more than 1400; in data set [4] (setting [7]), 4400; in data set [4] (setting [8]), more than 100. Moreover, the “Amount of Sulfonate, Day 1” value in data set [4] is listed as 3.09 ± 1.58 ppm. Besides, the “Amount of Sulfonate, Day 14” value in data set [4] came out at 0.126 ± 0.084 ppm. The “Amount of Sulfonate, Day 28” value in data set [4] worked out at 0.025 ± 0.015 ppm. Further, the “Amount of Sulfonate, Day 1N” value in data set [4] worked out at 0.31 ppm. Further, in data set [4], the “Amount of Sulfonate, Day 14N” value turned out to be 0.0126 ppm. The “Amount of Sulfonate, Day 28N” value in data set [4] was determined as 0.0025 ppm. Moreover, the “elimination from the body, in words” value in data set [4] (listed as C4F9SO3^−) is “unexpectedly fast and effective elimination”; in data set [4] (listed as perfluorobutanesulfonate), “eliminates from the body more rapidly than perfluorohexanesulfonate and much more rapidly than perfluorooctanelsulfonate”.
Consider `O=S(=O)([O-])C(F)(F)C(F)(F)C(F)(F)C(F)(F)C(F)(F)C(F)(F)C(F)(F)C(F)(F)F.[K+]` [Example C8F17SO3K, Potassium perfluorooctanesulfonate], for which the “surface tension (surface energy)” value in data set [1] (10 ppm) was determined as 67.68 dynes/cm. Further, the “surface tension (surface energy)” value in data set [1] (100 ppm) was found to be 54.09 dynes/cm. Further, the “surface tension (surface energy)” value in data set [1] (1000 ppm) worked out at 33.17 dynes/cm. Besides, the “Surface Tension @ 2000 ppm” value in data set [2] was 26.96 dyne/cm. Further, in data set [4], the “Amount of Sulfonate, Day 1” value was found to be 419 ± 86 ppm; the “Amount of Sulfonate, Day 14” value is given as 309 + 34 ppm; the “Amount of Sulfonate, Day 28” value is 237 ± 25 ppm; the “Amount of Sulfonate, Day 1N” value was determined as 419 ppm. In data set [4], the “Amount of Sulfonate, Day 14N” value came out at 309 ppm and the “Amount of Sulfonate, Day 28N” value is listed as 237 ppm.
For the molecule `N.O=S(=O)(O)C(F)(F)C(F)(F)C(F)(F)C(F)(F)C(F)(F)C(F)(F)C(F)(F)C(F)(F)F` [FC-93, ammonium perfluorooctanesulfonate], the “solubility in buffered oxide etch” value in data set [5] (all concentrations (FIG. 4)) was “precipitated”.
Take `O=S(=O)([O-])C1(F)C(F)(F)C(F)(F)C(F)(C(F)(F)C(F)(F)F)C(F)(F)C1(F)F.[K+]` (stereo not drawn) [FC-98, Potassium perfluoroethylcyclohexanesulfonate]: the “Surface Tension @ 2000 ppm” value in data set [2] is given as 26.94 dyne/cm. For the same molecule, the “Observed Conductivity” value in data set [3] turned out to be 3.2 uS/cm.
Regarding `O=S(=O)([N-]S(=O)(=O)C(F)(F)C(F)(F)C(F)(F)C(F)(F)F)C(F)(F)C(F)(F)C(F)(F)C(F)(F)F.O=S(=O)([N-]S(=O)(=O)C(F)(F)C(F)(F)C(F)(F)C(F)(F)F)C(F)(F)C(F)(F)C(F)(F)C(F)(F)F.[Mg+2]` [Mg (DBI)2, Mg^+2[^−N(SO2C4F9)2]2], the surface tension was 46.6 dyne/cm in data set [1] (200 ppm); 40.2 dyne/cm in data set [1] (450 ppm); 35.0 dyne/cm in data set [1] (960 ppm); 32.0 dyne/cm in data set [1] (1300 ppm); 29.0 dyne/cm in data set [1] (1700 ppm); 26.3 dyne/cm in data set [1] (2600 ppm). Moreover, in data set [2], the “Surface Tension @ 2000 ppm” value amounted to 27.04 dyne/cm.
As for `O=S(=O)([O-])C(F)(F)C(F)(F)C(F)(F)C(F)(F)C(F)(F)C(F)(F)C(F)(F)C(F)(F)F.O=S(=O)([O-])C(F)(F)C(F)(F)C(F)(F)C(F)(F)C(F)(F)C(F)(F)C(F)(F)C(F)(F)F.[Mg+2]` [Mg(C8F17SO3)2], the “Surface Tension @ 2000 ppm” value in data set [2] worked out at 27.36 dyne/cm.
Same read-out and setting: the same measure for `O.O.O.O.O.O.O=S(=O)([O-])C(F)(F)C(F)(F)C(F)(F)C(F)(F)F.O=S(=O)([O-])C(F)(F)C(F)(F)C(F)(F)C(F)(F)F.[Mg+2]` [Mg(SO3C4F9)2 · 6H2O]: 26.93 dyne/cm.
Regarding `O=S(=O)(NS(=O)(=O)C(F)(F)C(F)(F)C(F)(F)C(F)(F)F)C(F)(F)C(F)(F)C(F)(F)C(F)(F)F` [bis(perfluorobutanesulfonyl)imide, HN(SO2C4F9)2], the “surface tension versus concentration profile, comparison in words” value in data set [1] was “better surfactants than NH4^+−OSO2C8F17”. Also, the appearance of solution entry in data set [5] (1000 ppm) is reported as “slightly hazy to the eye”.
For the molecule “[^−N(SO2C4F9)2]2 (+)H3NCH(CH3)CH2[OCH(CH3)CH2]a[OCH2CH2]8.5[OCH(CH3)CH2]CNH3(+) (a+c=2.5) [(DBI)2 JEFFAMINE ™ ED600]”, the figures for the “surface tension (surface energy)” value in data set [1] (10 ppm), in data set [1] (100 ppm) and in data set [1] (1000 ppm) were 57.4 dynes/cm, 40.7 dynes/cm and 32.7 dynes/cm, respectively. Further, the “surface tension versus concentration profile, comparison in words” value in data set [1] is listed as “significantly lower surface tensions than C4F9SO3K”.
